Results on one molecule are retold here after patent US20250108048A1, “STING AGONIST COMPOUNDS AND CONJUGATES” (SUTRO BIOPHARMA, INC., priority 2023, published 2025).

As a reminder, the EC50 is the concentration that produces a half-maximal response. By Kd is commonly meant the constant that tells how readily two partners part at equilibrium.

Each structure is given as a SMILES string.

In one assay the target is T1, mSTING (Mus musculus, UniProt Q3TBT3).
T1 sequence (Q3TBT3 1-378): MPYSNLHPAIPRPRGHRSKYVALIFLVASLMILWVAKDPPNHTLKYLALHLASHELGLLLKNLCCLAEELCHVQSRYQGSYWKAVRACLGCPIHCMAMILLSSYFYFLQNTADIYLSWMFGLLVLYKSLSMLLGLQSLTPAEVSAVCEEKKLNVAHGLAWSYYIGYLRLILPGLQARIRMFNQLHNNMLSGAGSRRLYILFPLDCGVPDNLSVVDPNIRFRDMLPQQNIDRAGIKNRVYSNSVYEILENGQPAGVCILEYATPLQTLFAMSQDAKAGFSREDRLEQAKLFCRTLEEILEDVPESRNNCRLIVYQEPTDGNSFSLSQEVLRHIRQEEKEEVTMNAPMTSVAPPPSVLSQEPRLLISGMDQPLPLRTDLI
Kind of assay: THP1-Dual KI-mSTING reporter assay. Details: host or cells: THP1-Dual KI-mSTING (from THP1-Dual KO-STING). In kind it is cell-based. The note with it: THP1-Dual KI-mSTING cells, 24 hours; read-out: Reporter assay EC50 (nM) THP-1 mSTING. (Reporter assays use an easily measured gene product as a stand-in for the process of interest.)

The target of a further assay is T2, hSTING-HAQ haplotype (Homo sapiens, UniProt Q86WV6, G230A/H232R/R293Q/R71H).
T2 construct: host or cells: THP-1-Dual
T2 sequence (Q86WV6 whole entry R71H/G230A/H232R/R293Q): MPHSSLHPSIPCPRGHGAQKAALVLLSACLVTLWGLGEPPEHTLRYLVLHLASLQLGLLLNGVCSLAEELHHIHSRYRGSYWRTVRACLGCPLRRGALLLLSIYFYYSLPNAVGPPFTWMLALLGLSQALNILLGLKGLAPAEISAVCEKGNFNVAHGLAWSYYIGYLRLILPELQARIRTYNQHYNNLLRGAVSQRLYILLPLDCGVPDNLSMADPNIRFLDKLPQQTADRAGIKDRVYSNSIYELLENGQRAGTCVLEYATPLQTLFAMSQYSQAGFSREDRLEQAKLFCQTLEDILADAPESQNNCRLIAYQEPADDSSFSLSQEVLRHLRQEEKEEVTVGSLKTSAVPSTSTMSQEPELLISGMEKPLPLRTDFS
Kind of assay: THP-1-Dual reporter assay (endogenous hSTING-HAQ). The note with it: THP-1-Dual cells (hSTING-HAQ), 24 hours. In kind it is cell-based.

Another assay deals with hSTING H232 (Homo sapiens, UniProt Q86WV6). Kind of assay: THP1-Dual KI-hSTING-H232 reporter assay (IRF pathway, secreted Lucia luciferase). The class given is cell-based. Also noted: host or cells: THP1-Dual KI-hSTING-H232 (from THP1-Dual KO-STING). The note with it: THP1-Dual KI-hSTING-H232 cells, 24 hours; read-out: Reporter assay EC50 (nM) THP-1-H232.
Sequence of hSTING H232 (Q86WV6 whole entry): as the sequence (Q86WV6 whole entry R71H/G230A/H232R/R293Q) above, with H71R, A230G, R232H, Q293R counted along it
Another assay concerns the target hSTING AQ (Homo sapiens, UniProt Q86WV6, G230A/H232R/R293Q). Kind of assay: Surface plasmon resonance, hSTING AQ. The class given is binding. The note with it: read-out: hSTING AQ SPR (Kd). On the technique in general: Surface plasmon resonance follows binding to a sensor surface in real time, without labels.
The next assay addresses hSTING WT (Homo sapiens, UniProt Q86WV6). Nature of the assay: Surface plasmon resonance, hSTING WT. In kind it is binding. As to conditions: read-out: hSTING WT SPR (Kd).

Sequence of hSTING AQ (Q86WV6 whole entry G230A/H232R/R293Q): as the sequence (Q86WV6 whole entry R71H/G230A/H232R/R293Q) above, with H71R counted along it
Sequence of hSTING WT (Q86WV6 whole entry H232R): as the sequence (Q86WV6 whole entry R71H/G230A/H232R/R293Q) above, with H71R, A230G, Q293R counted along it

For `CCn1nc(C)cc1C(=O)Nc1nc2cc(C(N)=O)cc(OC)c2n1C/C=C/Cn1c(NC(=O)c2cc(C)nn2CC)nc2cc(C(N)=O)cc(OCCCN3CCC(c4nnc5n4CCNC5)CC3)c21` [Compound 4, 1-[(E)-4-[5-carbamoyl-2-[(2-ethyl-5-methyl-pyrazole-3-carbonyl)amino]-7-[3-[4-(5,6,7,8-tetrahydro-[1,2,4]triazolo[4,3-a]pyrazin-3-yl)-1-piperidyl]propoxy]benzimidazol-1-yl]but-2-enyl]-2-[(2-ethyl-5-methyl-pyrazole-3-carbonyl)amino]-7-methoxy-benzimidazole-5-carboxamide; 2,2,2-trifluoroacetic acid], the EC50 at mSTING was > 150 nM; at hSTING-HAQ haplotype, 50 to 150 nM; on hSTING H232 it was > 150 nM. Further, the Kd at hSTING AQ and on hSTING WT was ≤ 20 nM throughout.
